According to patent US20130109703A1, “Combination of a GPR119 Agonist and the DPP-IV Inhibitor Linagliptin for Use in the Treatment of Diabetes and Related Conditions” (Boehringer Ingelheim International GmbH, priority 2010, published 2013):

Columns and labels:
[1] = system: Zucker Diabetic Fatty (ZDF) rats (ZDF/Crl-Lepr^fa); test: Oral glucose tolerance test in overnight fasted 9-weeks old male ZDF rats; assay type: in vivo, rat; conditions: 1st Example, FIG. 1; single oral dose 30 min before oral glucose load 2 g/kg; Cpd. A 3 mg/kg, Cpd. B 100 mg/kg, combination at the same doses; versus vehicle
Experimental: (§1) According to a first example an oral glucose tolerance test is performed in overnight fasted 9-weeks old male Zucker Diabetic Fatty (ZDF) rats (ZDF/Crl-Lepr^fa). A pre-dose blood sample is obtained by tail bleed. Blood glucose is measured with a glucometer, and the animals are randomized for blood glucose (n=5/group). […] The animals receive an oral glucose load (2 g/kg) 30 min after compound administration. Blood glucose is measured in tail blood 15 min, 30 min, 60 min, and 90 min after the glucose challenge. Glucose excursion is quantified by calculating the reactive glucose AUC. The data are presented as mean±SEM. The two-sided unpaired Student t-test is used for statistical comparison of the control group and the active groups as well as between active groups.

[2] = system: Zucker Diabetic Fatty (ZDF) rats (ZDF/Crl-Lepr^fa); test: Oral glucose tolerance test in overnight fasted 15-weeks old male ZDF rats (highly insulin-resistant model); assay type: in vivo, rat; conditions: single oral dose 30 min before oral glucose load 2 g/kg, Cpd. A 3 mg/kg, combination at the same doses, versus vehicle
Experimental: as §1, with “to a second example an” for “to a first example an”, “overnight fasted 15-weeks old male” for “overnight fasted 9-weeks old male”, “rats (ZDF/Crl-Lepr^fa). This aged ZDF rats serve as a highly insulin-resistant animal model. A pre-dose” for “rats (ZDF/Crl-Lepr^fa). A pre-dose”, “tail blood 30 min,” for “tail blood 15 min, 30 min,”, “60 min, 90 min, 120 min, and 180” for “60 min, and 90”, “min, and 180 min after” for “min, and 90 min after”

[3] = Excretion route of BI 1356 at therapeutic oral dose levels; assay type: in vivo

With `CC#CCn1c(N2CCC[C@@H](N)C2)nc2c1c(=O)n(Cc1nc(C)c3ccccc3n1)c(=O)n2C` [Cpd. A, 1-[(4-methyl-quinazolin-2-yl)methyl]-3-methyl-7-(2-butyn-1-yl)-8-(3-(R)-amino-piperidin-1-yl)-xanthine] the “reduction of glucose excursion (reactive glucose AUC)” value (shortened to “reduction of glucose excursion”) [1] was 49%, the “reduction of glucose excursion” value ([2]; 2nd Example, FIG. 2, Cpd. B 30 mg/kg) was 1% and the “reduction of glucose excursion” value ([2]; 3rd Example, FIG. 3, Cpd. B 10 mg/kg) was 1%. For the same compound, the “excretion via the kidney” value [3] was < 7 % of the administered oral dose.
